Experimental data taken from doi:10.1101/2020.10.13.20211417v1 (medRxiv, 2020).

Tests used:
Assay type in all cases: in vivo, human
[1] = tested on: patients with acute primary supratentorial ICH; experiment: Hematoma volume from CT images
[2] = tested on: patients with acute primary supratentorial ICH; experiment: Adverse events and safety endpoints, CATCH trial
[3] = Noncompartmental plasma pharmacokinetics of CN-105 in CATCH participants; conditions: for clearance / Vd / half-life: human, 1 mg/kg; for Vd: Vz
[4] = Related, Treatment Emergent Non-Serious AEs
[5] = Treatment Emergent Non-Serious AEs
[6] = non-serious TEAE events, Total, Total severity

Ac-VSRRR-NH2 [CN-105]
Mean (SD) hematoma volume by CT ([1]; Day 1 after ICH): 25.1 (25.1) cm^3 | Mean (SD) hematoma volume by CT ([1]; Day 2 after ICH): 21.9 (24.9) cm^3 | Mean (SD) hematoma volume by CT ([1]; Day 5 after ICH): 19.7 (19.6) cm^3 | hematoma volumes versus 1:1 matched ERICH participants ([1]; Days 0, 1, 2, 5, box plots, descriptive): No difference | participants with incidence of hemorrhage extension ([1]; Nine of 38, one with clinical deterioration): 24% | Mean (SD) hematoma volume by CT ([1]; on admission): 22.8 (23.7) cm^3 | participants experiencing treatment emergent SAEs ([2]; 9 of 38 participants): 24% | participants experiencing nonfatal SAEs ([2]; 12 of 38 participants): 32% | central nervous system (CNS) infection ([2]; 38 participants): No participants | changes in electrocardiogram parameters ([2]; 38 participants): No participant experienced changes | treatment emergent AE constipation, participants ([2]; 38 participants): 26% | treatment emergent AE hypomagnesemia, participants ([2]; 38 participants): 18% | treatment emergent AE hyponatremia, participants ([2]; 38 participants): 18% | treatment emergent AE hypophosphatemia, participants ([2]; 38 participants): 21% | treatment emergent AE leukocytosis, participants ([2]; 38 participants): 24% | treatment emergent AE nausea, participants ([2]; 38 participants): 18% | treatment emergent AE pain, participants ([2]; 38 participants): 29% | treatment emergent AE pyrexia, participants ([2]; 38 participants): 16% | # of Events ([2]; All Non-Serious AEs): 237 | # of Events, Mild ([2]; All Non-Serious AEs): 183 | # of Events, Moderate ([2]; All Non-Serious AEs): 51 | # of Events, Severe ([2]; All Non-Serious AEs): 3 | # of Subjects ([2]; All Non-Serious AEs): 31 | # of Subjects, Mild ([2]; All Non-Serious AEs): 30 | # of Subjects, Moderate ([2]; All Non-Serious AEs): 19 | # of Subjects, Severe ([2]; All Non-Serious AEs): 2 | participants with in-hospital neurological deterioration ([2]; Five of 38, increase of NIHSS>2 from baseline persisting more than 24 hours): 13% | # of Events [2, 4]: 86 | # of Events, Mild [2, 4]: 73 | # of Events, Moderate [2, 4]: 13 | # of Events, Severe [2, 4]: 0 | # of Subjects [2, 4]: 16 | # of Subjects, Mild [2, 4]: 16 | # of Subjects, Moderate [2, 4]: 5 | # of Subjects, Severe [2, 4]: 0 | participants who died prior to 30-day follow up ([2]; Three of 38, in-hospital, related to primary disease): 8% | # of Events [2, 5]: 230 | # of Events, Mild [2, 5]: 177 | # of Events, Moderate [2, 5]: 50 | # of Events, Severe [2, 5]: 3 | # of Subjects [2, 5]: 30 | # of Subjects, Mild [2, 5]: 29 | # of Subjects, Moderate [2, 5]: 19 | # of Subjects, Severe [2, 5]: 2 | participants receiving treatment for elevated intracranial pressure ([2]; Two of 38, both died in-hospital of brain herniation from index ICH): 5% | SAE Drug administration error (Medication administration error), Relatedness ([2]; all SAEs, subject 101-003, Moderate, day 2-2, Recovered / Resolved): Unrelated | SAE Pneumonia (Left upper lobe pneumonia), Relatedness ([2]; all SAEs, subject 101-004, Moderate, day 1-8, Recovered / Resolved): Related | SAE Failure to thrive, Relatedness ([2]; all SAEs, subject 101-004, Moderate, day 23-57, Recovered / Resolved): Unrelated | SAE Cerebral haemorrhage (Left Frontal IPH), Relatedness ([2]; all SAEs, subject 101-004, Severe, day 58-62, Recovered / Resolved): Related | SAE Brain herniation (Cerebral herniation), Relatedness ([2]; all SAEs, subject 101-007, Severe, day 0-5, Fatal): Unrelated | SAE Respiratory failure (Hypoxic Respiratory Failure), Relatedness ([2]; all SAEs, subject 101-008, Moderate, day 2-4, Recovered / Resolved): Related | SAE Urinary tract infection, Relatedness ([2]; all SAEs, subject 101-013, Moderate, day 39-44, Recovered / Resolved): Unrelated | SAE Pulmonary embolism, Relatedness ([2]; all SAEs, subject 101-015, Severe, day 22-32, Recovered / Resolved): Unrelated | SAE Cerebral haemorrhage (Worsening of Intracerebral Hemorrhage), Relatedness ([2]; all SAEs, subject 101-018, Severe, day 0-6, Fatal): Unrelated | SAE Dural arteriovenous fistula, Relatedness ([2]; all SAEs, subject 102-002, Moderate, day 1-1, Recovered / Resolved): Unrelated | SAE Deep vein thrombosis (Left Popliteal Vein), Relatedness ([2]; all SAEs, subject 102-010, Severe, day 75-83, Recovered / Resolved): Unrelated | SAE Respiratory distress, Relatedness ([2]; all SAEs, subject 103-001, Moderate, day 1-35, Recovered / Resolved): Unrelated | SAE Brain herniation, Relatedness ([2]; all SAEs, subject 104-001, Severe, day 0-4, Fatal): Unrelated | SAE Partial seizures (Focal Seizure), Relatedness ([2]; all SAEs, subject 106-002, Severe, day 8-18, Recovered / Resolved): Unrelated | treatment emergent SAEs, number of events ([2]; deemed unlikely related to study drug): Eleven | Grand Total ([2]; non-serious TEAE events, Total severity): 230 (100) N (%) | Acute kidney injury [2, 6]: 4 (1.7) N (%) | Agitation [2, 6]: 5 (2.2) N (%) | Alcohol withdrawal syndrome [2, 6]: 1 (0.4) N (%) | Anemia [2, 6]: 5 (2.2) N (%) | Anxiety [2, 6]: 1 (0.4) N (%) | Atelectasis [2, 6]: 1 (0.4) N (%) | Atrial fibrillation [2, 6]: 1 (0.4) N (%) | Azotemia [2, 6]: 1 (0.4) N (%) | Bacteremia [2, 6]: 1 (0.4) N (%) | Benign prostatic hyperplasia [2, 6]: 1 (0.4) N (%) | Bladder catheterization [2, 6]: 1 (0.4) N (%) | Blood phosphorus decreased [2, 6]: 1 (0.4) N (%) | Bradycardia [2, 6]: 2 (0.9) N (%) | Brain edema [2, 6]: 2 (0.9) N (%) | Candida infection [2, 6]: 1 (0.4) N (%) | Chest pain [2, 6]: 2 (0.9) N (%) | Cognitive disorder [2, 6]: 1 (0.4) N (%) | Confusional state [2, 6]: 1 (0.4) N (%) | Constipation [2, 6]: 11 (4.8) N (%) | Cough [2, 6]: 1 (0.4) N (%) | Decubitus ulcer [2, 6]: 1 (0.4) N (%) | Deep vein thrombosis [2, 6]: 1 (0.4) N (%) | Dehydration [2, 6]: 1 (0.4) N (%) | Delirium [2, 6]: 5 (2.2) N (%) | Depressed mood [2, 6]: 3 (1.3) N (%) | Depression [2, 6]: 1 (0.4) N (%) | Diarrhea [2, 6]: 2 (0.9) N (%) | Dysphagia [2, 6]: 3 (1.3) N (%) | Dyspnea [2, 6]: 3 (1.3) N (%) | Edema [2, 6]: 2 (0.9) N (%) | Endotracheal intubation [2, 6]: 1 (0.4) N (%) | Eustachian tube dysfunction [2, 6]: 1 (0.4) N (%) | Exophthalmos [2, 6]: 1 (0.4) N (%) | Fall [2, 6]: 5 (2.2) N (%) | Flatulence [2, 6]: 2 (0.9) N (%) | Gastrointestinal hemorrhage [2, 6]: 1 (0.4) N (%) | Headache [2, 6]: 4 (1.7) N (%) | Helicobacter infection [2, 6]: 1 (0.4) N (%) | Hematocrit decreased [2, 6]: 1 (0.4) N (%) | Hydrocephalus [2, 6]: 3 (1.3) N (%) | Hyperchloremia [2, 6]: 2 (0.9) N (%) | Hyperglycemia [2, 6]: 5 (2.2) N (%) | Hyperlipidemia [2, 6]: 2 (0.9) N (%) | Hypermagnesemia [2, 6]: 2 (0.9) N (%) | Hypernatremia [2, 6]: 1 (0.4) N (%) | Hypocalcemia [2, 6]: 5 (2.2) N (%) | Hypoglycemia [2, 6]: 1 (0.4) N (%) | Hypokalemia [2, 6]: 4 (1.7) N (%) | Hypomagnesemia [2, 6]: 7 (3) N (%) | Hyponatremia [2, 6]: 7 (3) N (%) | Hypophosphatemia [2, 6]: 9 (3.9) N (%) | Hypotension [2, 6]: 2 (0.9) N (%) | Impulsive behaviour [2, 6]: 2 (0.9) N (%) | Intracranial pressure increased [2, 6]: 2 (0.9) N (%) | Lactic acidosis [2, 6]: 2 (0.9) N (%) | Leukocytosis [2, 6]: 9 (3.9) N (%) | Medical observation [2, 6]: 1 (0.4) N (%) | Muscle spasticity [2, 6]: 1 (0.4) N (%) | Musculoskeletal pain [2, 6]: 1 (0.4) N (%) | Nasal congestion [2, 6]: 3 (1.3) N (%) | Nausea [2, 6]: 7 (3) N (%) | Neuralgia [2, 6]: 2 (0.9) N (%) | Neurological decompensation [2, 6]: 1 (0.4) N (%) | Pain [2, 6]: 12 (5.2) N (%) | Partial seizures [2, 6]: 1 (0.4) N (%) | Patella fracture [2, 6]: 1 (0.4) N (%) | Pneumocephalus [2, 6]: 1 (0.4) N (%) | Pneumonia [2, 6]: 4 (1.7) N (%) | Pneumonia aspiration [2, 6]: 1 (0.4) N (%) | Pneumothorax [2, 6]: 2 (0.9) N (%) | Procedural pain [2, 6]: 1 (0.4) N (%) | Pulmonary congestion [2, 6]: 1 (0.4) N (%) | Pulmonary embolism [2, 6]: 1 (0.4) N (%) | Pyrexia [2, 6]: 6 (2.6) N (%) | Reflux gastritis [2, 6]: 1 (0.4) N (%) | Respiratory failure [2, 6]: 1 (0.4) N (%) | Scleral oedema [2, 6]: 1 (0.4) N (%) | Scrotal irritation [2, 6]: 1 (0.4) N (%) | Seizure [2, 6]: 2 (0.9) N (%) | Sepsis [2, 6]: 1 (0.4) N (%) | Sleep apnea syndrome [2, 6]: 1 (0.4) N (%) | Somnolence [2, 6]: 1 (0.4) N (%) | Staphylococcal infection [2, 6]: 1 (0.4) N (%) | Subarachnoid haemorrhage [2, 6]: 2 (0.9) N (%) | Tachycardia [2, 6]: 2 (0.9) N (%) | Tachypnea [2, 6]: 3 (1.3) N (%) | Thrombocytopenia [2, 6]: 3 (1.3) N (%) | Thrombocytosis [2, 6]: 1 (0.4) N (%) | Thrombosis [2, 6]: 1 (0.4) N (%) | Tremor [2, 6]: 1 (0.4) N (%) | Troponin increased [2, 6]: 1 (0.4) N (%) | Urinary incontinence [2, 6]: 1 (0.4) N (%) | Urinary retention [2, 6]: 4 (1.7) N (%) | Urinary tract infection [2, 6]: 4 (1.7) N (%) | Vomiting [2, 6]: 2 (0.9) N (%) | Treatment emergent SAE Pneumonia (Left upper lobe pneumonia), Relatedness ([2]; subject 101-004, Moderate, day 1-8, Recovered / Resolved): Related | Treatment emergent SAE Failure to thrive, Relatedness ([2]; subject 101-004, Moderate, day 23-57, Recovered / Resolved): Unrelated | Treatment emergent SAE Cerebral haemorrhage (Left Frontal IPH), Relatedness ([2]; subject 101-004, Severe, day 58-62, Recovered / Resolved): Related | Treatment emergent SAE Urinary tract infection, Relatedness ([2]; subject 101-013, Moderate, day 39-44, Recovered / Resolved): Unrelated | Treatment emergent SAE Pulmonary embolism, Relatedness ([2]; subject 101-015, Severe, day 22-32, Recovered / Resolved): Unrelated | Treatment emergent SAE Dural arteriovenous fistula, Relatedness ([2]; subject 102-002, Moderate, day 1-1, Recovered / Resolved): Unrelated | Treatment emergent SAE Deep vein thrombosis (Left Popliteal Vein), Relatedness ([2]; subject 102-010, Severe, day 75-83, Recovered / Resolved): Unrelated | Treatment emergent SAE Respiratory distress, Relatedness ([2]; subject 103-001, Moderate, day 1-35, Recovered / Resolved): Unrelated | Treatment emergent SAE Partial seizures (Focal Seizure), Relatedness ([2]; subject 106-002, Severe, day 8-18, Recovered / Resolved): Unrelated | Accumulation, mean (SD) ratio of AUCs ([3]; Dose 1:Dose 13, SD): 1.3 (0.4) | CL ([3]; Maximum, N=6): 7.7 L/h | Vz ([3]; Maximum, N=6): 56.8 L | t1/2 ([3]; Maximum, N=6): 8.7 h | λz,ss ([3]; Maximum, N=6): 0.3 h⁻¹ | λz,ss ([3]; Mean, N=6, SD 0.1, after last dose): 0.2 h⁻¹ | λz,ss ([3]; Median, N=6): 0.2 h⁻¹ | CL ([3]; Minimum, N=6): 4.6 L/h | Vz ([3]; Minimum, N=6): 25.2 L | t1/2 ([3]; Minimum, N=6): 2.3 h | λz,ss ([3]; Minimum, N=6): 0.1 h⁻¹ | Mean (SD) maximum concentrations ([3]; dose 13, 1.0 mg/kg IV over 30 min every 6 h, plasma, LC-MS/MS, SD 1335.9): 5638.3 ng/mL | clearance ([3]; plasma, intravenous): 122 mL/min | Vd ([3]; plasma, intravenous, Mean, N=6, SD 12.1): 41.2 L | Vd ([3]; plasma, intravenous, Median, N=6): 37.2 L | half-life ([3]; plasma, intravenous, t1/2, Mean, N=6, SD 2.2, terminal phase): 4.5 h | half-life ([3]; plasma, intravenous, t1/2, Median, N=6): 3.8 h | clearance ([3]; plasma, iv): 113 mL/min
